Assay results published in US10610522B2, “Methods for retreating irritable bowel syndrome (IBS)” (Salix Pharmaceuticals, Inc., priority 2014, dated 2020).

System: non-constipation IBS
Assay: Study 2 (TARGET 2): rifaximin 550 mg TID 14 days vs placebo in non-C IBS, 10-week follow-up
Type: in vivo, human
Settings: 550 mg TID
Description: The primary efficacy endpoint of the study was the proportion of subjects who achieved adequate relief of IBS symptoms for at least 2 weeks during the first 4 weeks of the 10-week follow-up phase.
Two measures of efficacy were assessed.
Subjects were questioned on the relief of overall IBS symptoms and bloating. […] The analyses defined success as a “yes” response to questions regarding adequate relief. […]
All subpopulations in the study responded to therapy. Baseline severity was determined during screening for Abdominal Pain/Discomfort and Bloating, and the number, type (normal, hard, loose) and urgency of bowel movements. Duration of effect was assessed in a ten week follow-up period. […]
In TARGET 1 and 2, the primary endpoint was the proportion of patients who achieved adequate relief of IBS symptoms for at least 2 of 4 weeks during the month following 14 days of treatment. Adequate relief was defined as a response of “yes” to the following weekly Subject Global Assessment (SGA) question: “In regards to your IBS symptoms, compared to the way you felt before you started study medication, have you, in the past 7 days, had adequate relief of your IBS symptoms? [Yes/No]”
The key secondary endpoint was the proportion of patients who achieved adequate relief of IBS-related bloating for at least 2 of 4 weeks during the month following 2 weeks of treatment. Adequate relief of IBS-related bloating was defined as a response of “yes” to the following weekly (every 7 days) SGA question: “In regards to your IBS symptom of bloating, compared to the way you felt before you started study medication, have you, in the past 7 days, had adequate relief of your IBS symptom of bloating? […]

[1] = Weeks 3-6, Population: PP (N = 311)
[2] = at least 2 of Weeks 3-6, N = 315, LOCF
[3] = Age Group: <65 (N = 281), Weeks 3-6
[4] = Gender: Female (N = 226), Weeks 3-6
[5] = Gender: Male (N = 85), Weeks 3-6
[6] = IBS Subtype: Alternating-predominant, Weeks 3-6
[7] = IBS Subtype: Diarrhoea-predominant, Weeks 3-6
[8] = Race: Non-White (N = 31), Weeks 3-6

Compound: CO[C@H]1/C=C/O[C@@]2(C)Oc3c(C)c(O)c4c(O)c(c5c(nc6cc(C)ccn65)c4c3C2=O)NC(=O)/C(C)=C\C=C\[C@H](C)[C@H](O)[C@@H](C)[C@@H](O)[C@@H](C)[C@H](OC(C)=O)[C@@H]1C [Rifaximin, (2S,16Z,18E,20S,21S,22R,23R,24R,25S,26S,27S,28E)-5,6,21,23,25 Pentahydroxy-27-methoxy-2,4,11,16,20,22,24,26-octamethyl-2,7-(epoxypentadeca-(1,11,13)trienimino) benzofuro (4,5-e) pyrido(1,2-a) benzimidazole-1,15(2H)-dione,25-acetate]
- Subjects with skin or subcutaneous tissue disorders: 1.3%
- Adequate relief of IBS symptom of bloating based on daily measures, Failure (Population: ITT (N = 315)): 182 (57.8%) N (%)
- Adequate relief of IBS symptom of bloating based on daily measures, Success (Population: ITT (N = 315)): 133 (42.2%) N (%)
- Adequate relief of IBS symptoms based on daily measures, Failure (Population: ITT (N = 315)): 200 (63.5%) N (%)
- Adequate relief of IBS symptoms based on daily measures, Success (Population: ITT (N = 315)): 115 (36.5%) N (%)
- Adequate relief of IBS symptom of bloating based on daily measures, Failure (Population: PP (N = 311)): 180 (57.9%) N (%)
- Adequate relief of IBS symptom of bloating based on daily measures, Success (Population: PP (N = 311)): 131 (42.1%) N (%)
- Adequate relief of IBS symptoms based on daily measures, Failure (Population: PP (N = 311)): 196 (63.0%) N (%)
- Adequate relief of IBS symptoms based on daily measures, Success (Population: PP (N = 311)): 115 (37.0%) N (%)
- Adequate relief of IBS symptom of bloating (weekly SGA), Failure [1]: 187 (60.1%) N (%)
- Adequate relief of IBS symptom of bloating (weekly SGA), Success [1]: 124 (39.9%) N (%)
- Adequate relief of IBS symptoms (weekly SGA), Failure [1]: 187 (60.1%) N (%)
- Adequate relief of IBS symptoms (weekly SGA), Success [1]: 124 (39.9%) N (%)
- Adequate relief of IBS symptom of bloating (weekly SGA), Failure [2]: 190 (60.3%) n (%)
- Adequate relief of IBS symptom of bloating (weekly SGA), Success [2]: 125 (39.7%) n (%)
- Adequate relief of IBS symptoms (weekly SGA), Failure [2]: 190 (60.3%) n (%)
- Adequate relief of IBS symptoms (weekly SGA), Success [2]: 125 (39.7%) n (%)
- Subjects discontinued study early for Adverse Event/Serious Adverse Event (randomized subjects (316)): 0 n (%)
- Adequate relief of IBS symptom of bloating (weekly SGA), Failure [3]: 171 (60.9%) N (%)
- Adequate relief of IBS symptom of bloating (weekly SGA), Success [3]: 110 (39.1%) N (%)
- Adequate relief of IBS symptoms (weekly SGA), Failure [3]: 171 (60.9%) N (%)
- Adequate relief of IBS symptoms (weekly SGA), Success [3]: 110 (39.1%) N (%)
- Adequate relief of IBS symptom of bloating (weekly SGA), Failure (Age Group: >=65, Weeks 3-6): 16 (53.3%) N (%)
- Adequate relief of IBS symptom of bloating (weekly SGA), Success (Age Group: >=65, Weeks 3-6): 14 (46.7%) N (%)
- Adequate relief of IBS symptoms (weekly SGA), Failure (Age Group: >=65, Weeks 3-6): 16 (53.3%) N (%)
- Adequate relief of IBS symptoms (weekly SGA), Success (Age Group: >=65, Weeks 3-6): 14 (46.7%) N (%)
- Adequate relief of IBS symptom of bloating (weekly SGA), Failure [4]: 128 (56.6%) N (%)
- Adequate relief of IBS symptom of bloating (weekly SGA), Success [4]: 98 (43.4%) N (%)
- Adequate relief of IBS symptoms (weekly SGA), Failure [4]: 130 (57.5%) N (%)
- Adequate relief of IBS symptoms (weekly SGA), Success [4]: 96 (42.5%) N (%)
- Adequate relief of IBS symptom of bloating (weekly SGA), Failure [5]: 59 (69.4%) N (%)
- Adequate relief of IBS symptom of bloating (weekly SGA), Success [5]: 26 (30.6%) N (%)
- Adequate relief of IBS symptoms (weekly SGA), Failure [5]: 57 (67.1%) N (%)
- Adequate relief of IBS symptoms (weekly SGA), Success [5]: 28 (32.9%) N (%)
- Adequate relief of IBS symptom of bloating (weekly SGA), Failure [6]: 19 (55.9%) N (%)
- Adequate relief of IBS symptom of bloating (weekly SGA), Success [6]: 15 (44.1%) N (%)
- Adequate relief of IBS symptoms (weekly SGA), Failure [6]: 21 (61.8%) N (%)
- Adequate relief of IBS symptoms (weekly SGA), Success [6]: 13 (38.2%) N (%)
- Adequate relief of IBS symptom of bloating (weekly SGA), Failure [7]: 168 (60.6%) N (%)
- Adequate relief of IBS symptom of bloating (weekly SGA), Success [7]: 109 (39.4%) N (%)
- Adequate relief of IBS symptoms (weekly SGA), Failure [7]: 166 (59.9%) N (%)
- Adequate relief of IBS symptoms (weekly SGA), Success [7]: 111 (40.1%) N (%)
- Adequate relief of IBS symptom of bloating (weekly SGA), Failure [8]: 17 (54.8%) N(%)
- Adequate relief of IBS symptom of bloating (weekly SGA), Success [8]: 14 (45.2%) N(%)
- Adequate relief of IBS symptoms (weekly SGA), Failure [8]: 16 (51.6%) N(%)
